Source: PubChem BioAssay AID1996
≈ marks a conversion by molar mass, not a printed value.

settings: buffer; pH 7.4; 200.0 µM

Going from `CN(CC(=O)NC1CCCC1)S(=O)(=O)c1cccc(Cl)c1` to `COC(CN(C)C(C(=O)NC1CCCCC1)c1ccccc1)OC` (stereo unspecified), the solubility kinetic rises from 7.6 µg/mL (≈ 23 µM) to over 50.2 µg/mL.

Compared with `OC1C2CN3CN(C2)CC1(c1ccccc1)C3` (stereo unspecified), `O=C(Oc1ccccc1)N1CCCC1` is lower in solubility kinetic: over 34.5 µg/mL for the first, 24.8 µg/mL (≈ 130 µM) for the second.

First: Cc1cc(SCC(=O)[O-])nc2ccccc12
Second: NC(=O)CSc1nc2ccccc2nc1SCC(N)=O
The solubility kinetic of the first is 5-fold higher: 31 µg/mL for the first, 6.2 µg/mL (≈ 20.1 µM) for the second.

First: O=C(Nc1c(-c2ccc(F)cc2)nc2ccccn12)c1ccc(F)cc1
Second: O=C(CSc1nc(-c2ccccc2)cc(=O)[nH]1)Nc1ccccc1
The solubility kinetic of the first is 2.5-fold higher: 3.3 µg/mL (≈ 9.45 µM) for the first, 1.3 µg/mL (≈ 3.85 µM) for the second.

`CCOC(=O)C1=C(COC(=O)c2cccnc2SC)NC(=O)NC1C` (stereo unspecified) and `N#CCCN(C(=O)COC(=O)c1cc(=O)[nH]c2ccccc12)c1ccccc1` cannot be ordered by solubility kinetic: over 54.8 µg/mL for the first, over 56.3 µg/mL for the second.

First: COc1ccc(OC)c(NC(=O)Nc2cnccn2)c1
Second: COc1ccc(OC)c(C(=O)/C=C/c2cccnc2)c1
The solubility kinetic of the first is lower: 3.3 µg/mL (≈ 12 µM) for the first, over 40.4 µg/mL for the second.

Compared with `COc1ccc(NC(=O)CCC(=O)N2CCCC2)c([N+](=O)[O-])c1`, `COc1cc(CC(=O)OCC(=O)N2CCCCC2)cc(OC)c1OC` is lower in solubility kinetic: over 48.2 µg/mL for the first, 46.5 µg/mL (≈ 132 µM) for the second.

`COc1ccc([N+](=O)[O-])c(OC)c1C(=O)NC(=O)Nc1nc(C)cc(C)n1` and `COc1cc(C)c(NC(=O)Cc2ccsc2)cc1OC` are within 1.5-fold of each other in solubility kinetic: 43.6 µg/mL (≈ 116 µM) for the first, 42.4 µg/mL (≈ 146 µM) for the second.

`CC(=O)c1c(C)[nH]c(C(=O)CN(C)CC(=O)Nc2ccccc2Cl)c1C` and `CC(=O)N(Cc1cc(=O)[nH]c2ccccc12)c1ccc(C)cc1C` cannot be ordered by solubility kinetic: over 56.4 µg/mL for the first, over 48.1 µg/mL for the second.

Compared with `CSc1ccccc1C(=O)C1CCCN(Cc2ccccn2)C1` (stereo unspecified), `CCOC(=O)C1CCCN(C(=O)c2cc(-c3ccco3)nc3ccccc23)C1` (stereo unspecified) is higher in solubility kinetic: 44.8 µg/mL (≈ 137 µM) for the first, over 56.8 µg/mL for the second.

Compared with `O=c1sc2ccccc2c(N2CCCCC2)c1[N+](=O)[O-]`, `CC1CCCCN1C(=O)CCn1c(=O)oc2ccccc21` (stereo unspecified) is higher in solubility kinetic: 20.4 µg/mL (≈ 70.3 µM) for the first, over 43.3 µg/mL for the second.

`CCCc1cc(=O)[nH]c(SCc2nc3ccccc3o2)n1` and `CN(C)c1nc(=S)nc(NCc2ccccc2)[nH]1` cannot be ordered by solubility kinetic: over 45.2 µg/mL for the first, over 39.2 µg/mL for the second.

`CNC(=O)/C(C#N)=C/c1cn(CC(=O)OC)c2ccccc12` and `COC(=O)Cn1cc(C=C2C(=O)NC(=O)NC2=O)c2ccccc21` are within 1.5-fold of each other in solubility kinetic: 7.8 µg/mL (≈ 26.2 µM) for the first, 8.6 µg/mL (≈ 26.3 µM) for the second.

Going from `CC(=O)N(CCOc1ccccc1)CCOc1ccccc1` to `O=C(COc1ccccc1)N1CCN=C1SCc1ccccc1`, the solubility kinetic falls from over 44.9 µg/mL to 14.3 µg/mL (≈ 43.8 µM).

Compared with `O=C(Nc1ccc2c(c1)OCO2)C1CCCCC1`, `Cc1ccc(NC(=S)N2CCCCC2)cc1C` is lower in solubility kinetic: over 37.1 µg/mL for the first, 30.5 µg/mL (≈ 123 µM) for the second.

`CCN(CC)C(=O)CSC(Nc1ccc(F)cc1)=C(C#N)C#N` and `COCc1ccc(C(=O)Nc2ccc(C(=O)O)cc2)o1` cannot be ordered by solubility kinetic: over 49.9 µg/mL for the first, over 41.3 µg/mL for the second.

Going from `COc1ccc(NC(=O)C2CC3CCC2C3)c(OC)c1` (stereo unspecified) to `COc1cc(NC(=O)COC(=O)CC2CC3CCC2C3)cc(OC)c1` (stereo unspecified), the solubility kinetic falls from 31.5 µg/mL (≈ 114 µM) to 14.6 µg/mL (≈ 42 µM) (2.2-fold).

Going from `O=C(O)CCCC(=O)N1CCOCCOCCOCCOCC1` to `CCCCCC1CCC(C(=O)N2CCOCC2)CC1` (stereo unspecified), the solubility kinetic falls from 48.2 µg/mL (≈ 145 µM) to 27.7 µg/mL (≈ 104 µM) (1.7-fold).

First: Nc1ccc2c(c1)Oc1ccccc1C=C2
Second: Cc1ccccc1Cn1c(C)nc2ccccc21
The solubility kinetic of the first is lower: 12.3 µg/mL (≈ 58.8 µM) for the first, over 35.4 µg/mL for the second.

Compared with `CN1/C(=C\C=O)C(C)(C)c2ccccc21`, `Cc1ccccc1NC(=O)OCc1ccccc1` is lower in solubility kinetic: over 30.2 µg/mL for the first, 23.7 µg/mL (≈ 98.2 µM) for the second.

First: COc1cc2[nH]c(C(=O)N3CCN(C)CC3)cc2c(OC)c1OC
Second: COc1ccc(F)cc1S(=O)(=O)N1CCN(c2ccccn2)CC1
The solubility kinetic of the first is 5.5-fold higher: 33.8 µg/mL (≈ 101 µM) for the first, 6.1 µg/mL (≈ 17.4 µM) for the second.

First: Cc1cccc(NC(=O)Nc2ccc3c(c2)CCC3)c1
Second: O=C(NCc1ccccn1)Nc1ccc(F)c(Cl)c1
The solubility kinetic of the first is lower: under 0.3 µg/mL for the first, over 42 µg/mL for the second.

Going from `O=C(CNC(=O)c1cccs1)c1ccc(Br)cc1` to `NC(Cc1c[nH]c2ccccc12)C(=O)NCc1ccccc1` (stereo unspecified), the solubility kinetic rises from 17.9 µg/mL (≈ 55.2 µM) to 39.1 µg/mL (≈ 133 µM) (2.2-fold).

Going from `Cc1ccc2c(c1)sc(=NC(=O)C1CC1)n2C` to `Cc1ccc(SCc2ccc(C(=O)N3CCCCC3)cc2)cc1`, the solubility kinetic falls from 15.5 µg/mL (≈ 62.9 µM) to 6.1 µg/mL (≈ 18.7 µM) (2.5-fold).

Compared with `COc1cccc(NC(=O)CCN2C(=O)C3CC=CCC3C2=O)c1` (stereo unspecified), `CCn1cc(CCCC(=O)NCc2ccc(OC)cc2)c2ccccc21` is lower in solubility kinetic: over 49.3 µg/mL for the first, 10.5 µg/mL (≈ 30 µM) for the second.

First: COc1ccc(CNc2ccc(Cl)cc2)cc1Cn1ccnc1
Second: Cc1ccc(SCCC(=O)N/N=C/c2cccnc2)cc1
The solubility kinetic of the first is lower: 31.1 µg/mL (≈ 94.9 µM) for the first, over 44.9 µg/mL for the second.

First: CC1CCCN(Cc2c(O)ccc3c4c(c(=O)oc23)CCCC4)C1 (stereo unspecified)
Second: COc1ccc(OCC(=O)Nc2nc3c(s2)CCCC3)cc1
The solubility kinetic of the first is 3.1-fold higher: 44 µg/mL (≈ 134 µM) for the first, 14.3 µg/mL (≈ 44.9 µM) for the second.

`C=CC(=O)NC1CC2CCC1(C)C2(C)C` (stereo unspecified) and `CC1CCN(c2ccc3nnc(CCC(=O)NC(C)C)n3n2)CC1` cannot be ordered by solubility kinetic: over 31.1 µg/mL for the first, over 49.6 µg/mL for the second.

Compared with `O=S(=O)(NCCn1cccc1)c1ccc2ccccc2c1`, `c1ccc(CCCN2CCN(c3ccccc3)CC2)cc1` is 12-fold higher in solubility kinetic: 2.1 µg/mL (≈ 6.99 µM) for the first, 24.3 µg/mL (≈ 86.7 µM) for the second.

First: Cc1ccnc(NC(=O)c2ccc3[nH]c(=O)c(=O)[nH]c3c2)c1
Second: O=C(CN1C(=O)c2ccccc2S1(=O)=O)NCCc1ccc(F)cc1
The solubility kinetic of the first is lower: 2.2 µg/mL (≈ 7.43 µM) for the first, over 54.4 µg/mL for the second.

Compound `Cc1nc(C)c(C)nc1C` has a solubility kinetic of under 0.1 µg/mL.
